Results from patent US8765721B2, “Composition comprising phosphatidyl serine and an antigen or allergen and the use thereof” (Vaccine Technology Limited, priority 2004, dated 2014).

Legend:
Type in all cases: in vivo, rat
[1] = system: IgE; assay: Ovalbumin-specific IgE ELISA of serum of immunised rats; conditions: Day 1; 250 ug with 20 μg Ova s.c. on days 21 and 42; pooled group serum
[2] = system: IgG1; assay: Ovalbumin-specific IgG1 ELISA of serum of immunised rats; conditions: pooled group serum
Protocol: (§1) Rats were injected with vaccine compositions comprising the ovalbumin antigen with and without di-oleoyl phosphatidyl serine, lyso-oleoyl phosphatidyl serine or stearoyl(X1)-arachidonoyl(X2) phosphatidyl serine and the concentrations of IgE, IgA and IgG are compared.
(§2) The animals were acclimatised for a period of 5 days prior to dosing. During the acclimatisation period animals were observed twice daily during the working week and once on each day during the weekend to evaluate the health status of the animals. Rats were then allocated to the following dose groups using computer-generated random order numbers.
(§3) On day 0, 20 μg of ovalbumin (OA) in phosphate buffered saline (PBS) with alhydrogel (AHG) adjuvant in a final volume of 0.5 mL was administered.
(§4) On days 21 and 42, 20 μg of ovalbumin (OA) in phosphate buffered saline (PBS) with the relevant test compound in a final volume of 0.5 ml was administered.
(§5) In each case, 0.5 mL of inoculum was injected subcutaneously into the scruff of the neck. […]
(§6) Serum was prepared by centrifugation of the blood sample at 2,500 rpm for 10 minutes and frozen at −20° C. The samples were then analysed by ELISA to establish the concentration of IgE, IgA and IgG1, IgG2a and IgG2b.
The purpose of an ELISA is to determine whether a particular protein is present in a sample and then enables quantification of how much is present. By coating the bottom of wells with ovalbumin (OVA) it is possible to bind anti-OVA specific antibodies. […] Quantification of specific antibodies in the rat sera samples was performed using antibody titrations. The data was reported as endpoint titers. Endpoint titers are defined as the last serum dilution giving an optical density value equal to twice the background optical density for the ELISA plate (buffer).

[3] = system: IgA; assay: Ovalbumin-specific IgA ELISA of serum of immunised rats; conditions: Day 1; 50 ug with 20 μg Ova s.c. on days 21 and 42; pooled group serum
[4] = system: IgG2a; assay: Ovalbumin-specific IgG2a ELISA of serum of immunised rats; conditions: pooled group serum
Protocol: as §1, §2, §3, §4, §5, §6
(§7) The purpose of an ELISA is to determine whether a particular protein is present in a sample and then enables quantification of how much is present. By coating the bottom of wells with ovalbumin (OVA) it is possible to bind anti-OVA specific antibodies. To detect only anti-OVA IgA antibodies anti-rat IgA conjugated to HRP was used as a secondary antibody. Quantification of specific antibodies in the rat sera samples was performed using antibody titrations. The data was reported as endpoint titers. Endpoint titers are defined as the last serum dilution giving an optical density value equal to twice the background optical density for the ELISA plate (buffer).

[5] = system: IgG2b; assay: Ovalbumin-specific IgG2b ELISA of serum of immunised rats; conditions: pooled group serum
Protocol: as §1, §2, §3, §4
(§8) In each case, 0.5 mL of inoculum was injected subcutaneously into the scruff of the neck.
(§9) […] A blood sample was also taken from each animal on Days 15, 22, 29, 36, 43, 50, 57 and 64.
as §6, §7

[6] = system: IgA; assay: Ovalbumin-specific IgA ELISA of serum of immunised rats; conditions: pooled group serum
Protocol: as §1, §2, §3, §4, §8
On Day 0 a pre-inoculation blood sample was taken. A blood sample was also taken from each animal on Days 15, 22, 29, 36, 43, 50, 57 and 64.
as §6, §7

[7] = system: IgE; assay: Ovalbumin-specific IgE ELISA of serum of immunised rats; conditions: pooled group serum
Protocol: as §1, §2, §3, §4, §8, §9, §6, §7

[8] = Day 1, 50 ug with 20 μg Ova s.c. on days 21 and 42
[9] = Day 1, 250 ug with 20 μg Ova s.c. on days 21 and 42
[10] = Day 15, 50 ug with 20 μg Ova s.c. on days 21 and 42
[11] = Day 15, 250 ug with 20 μg Ova s.c. on days 21 and 42
[12] = Day 22, 50 ug with 20 μg Ova s.c. on days 21 and 42
[13] = Day 22, 250 ug with 20 μg Ova s.c. on days 21 and 42
[14] = Day 29, 50 ug with 20 μg Ova s.c. on days 21 and 42
[15] = Day 29, 250 ug with 20 μg Ova s.c. on days 21 and 42
[16] = Day 36, 50 ug with 20 μg Ova s.c. on days 21 and 42
[17] = Day 36, 250 ug with 20 μg Ova s.c. on days 21 and 42
[18] = Day 43, 50 ug with 20 μg Ova s.c. on days 21 and 42
[19] = Day 43, 250 ug with 20 μg Ova s.c. on days 21 and 42
[20] = Day 50, 50 ug with 20 μg Ova s.c. on days 21 and 42
[21] = Day 50, 250 ug with 20 μg Ova s.c. on days 21 and 42
[22] = Day 57, 50 ug with 20 μg Ova s.c. on days 21 and 42
[23] = Day 57, 250 ug with 20 μg Ova s.c. on days 21 and 42
[24] = Day 64, 50 ug with 20 μg Ova s.c. on days 21 and 42
[25] = Day 64, 250 ug with 20 μg Ova s.c. on days 21 and 42

Question: With `CCCCCCCC/C=C\CCCCCCCC(=O)OC[C@H](COP(=O)(O)OC[C@H](N)C(=O)O)OC(=O)CCCCCCC/C=C\CCCCCCCC` [VT001, Dioleoyl phosphatidyl serine] as the compound, how does the IgE endpoint titer [1] read?
Answer: 0

Question: What about the IgG1 endpoint titer [2, 8] of the same compound?
Answer: 0

Question: What about the IgG1 endpoint titer [2, 9] of the same compound?
Answer: 0

Question: And the IgG1 endpoint titer [2, 10]?
Answer: 160

Question: And the IgG1 endpoint titer [2, 11]?
Answer: 160

Question: What about the IgG1 endpoint titer [2, 12] of the same compound?
Answer: 2560

Question: What about the IgG1 endpoint titer [2, 13] of the same compound?
Answer: 2560

Question: What about the IgG1 endpoint titer [2, 14] of the same compound?
Answer: 40960

Question: And the IgG1 endpoint titer [2, 15]?
Answer: 20480

Question: What about the IgG1 endpoint titer [2, 16] of the same compound?
Answer: 20480

Question: What about the IgG1 endpoint titer [2, 17] of the same compound?
Answer: 40960

Question: And the IgG1 endpoint titer [2, 18]?
Answer: 10240

Question: And the IgG1 endpoint titer [2, 19]?
Answer: 10240

Question: What about the IgG1 endpoint titer [2, 20] of the same compound?
Answer: 20480

Question: What about the IgG1 endpoint titer [2, 21] of the same compound?
Answer: 10240

Question: And the IgG1 endpoint titer [2, 22]?
Answer: 40960

Question: What about the IgG1 endpoint titer [2, 23] of the same compound?
Answer: 40960

Question: What about the IgG1 endpoint titer [2, 24] of the same compound?
Answer: 20480

Question: And the IgG1 endpoint titer [2, 25]?
Answer: 20480

Question: What about the IgA endpoint titer [3] of the same compound?
Answer: 0

Question: What about the IgG2a endpoint titer [4, 8] of the same compound?
Answer: 0

Question: And the IgG2a endpoint titer [4, 9]?
Answer: 0

Question: What about the IgG2a endpoint titer [4, 10] of the same compound?
Answer: 40

Question: And the IgG2a endpoint titer [4, 11]?
Answer: 640

Question: And the IgG2a endpoint titer [4, 12]?
Answer: 2560

Question: And the IgG2a endpoint titer [4, 13]?
Answer: 1280

Question: What about the IgG2a endpoint titer [4, 14] of the same compound?
Answer: 5120

Question: What about the IgG2a endpoint titer [4, 15] of the same compound?
Answer: 2560

Question: What about the IgG2a endpoint titer [4, 16] of the same compound?
Answer: 10240

Question: What about the IgG2a endpoint titer [4, 17] of the same compound?
Answer: 5120

Question: What about the IgG2a endpoint titer [4, 18] of the same compound?
Answer: 10240

Question: And the IgG2a endpoint titer [4, 19]?
Answer: 10240

Question: And the IgG2a endpoint titer [4, 20]?
Answer: 40960

Question: What about the IgG2a endpoint titer [4, 21] of the same compound?
Answer: 40960

Question: And the IgG2a endpoint titer [4, 22]?
Answer: 40960

Question: What about the IgG2a endpoint titer [4, 23] of the same compound?
Answer: 40960

Question: And the IgG2a endpoint titer [4, 24]?
Answer: 20480

Question: And the IgG2a endpoint titer [4, 25]?
Answer: 20480

Question: What about the IgG2b endpoint titer [5, 8] of the same compound?
Answer: 0

Question: What about the IgG2b endpoint titer [5, 9] of the same compound?
Answer: 0

Question: And the IgG2b endpoint titer [5, 10]?
Answer: 160

Question: And the IgG2b endpoint titer [5, 11]?
Answer: 320

Question: What about the IgG2b endpoint titer [5, 12] of the same compound?
Answer: 320

Question: What about the IgG2b endpoint titer [5, 13] of the same compound?
Answer: 640

Question: And the IgG2b endpoint titer [5, 14]?
Answer: 160

Question: And the IgG2b endpoint titer [5, 15]?
Answer: 640

Question: What about the IgG2b endpoint titer [5, 16] of the same compound?
Answer: 160

Question: And the IgG2b endpoint titer [5, 17]?
Answer: 2560

Question: And the IgG2b endpoint titer [5, 18]?
Answer: 160

Question: What about the IgG2b endpoint titer [5, 19] of the same compound?
Answer: 1280

Question: What about the IgG2b endpoint titer [5, 20] of the same compound?
Answer: 2560

Question: What about the IgG2b endpoint titer [5, 21] of the same compound?
Answer: 1280

Question: What about the IgG2b endpoint titer [5, 22] of the same compound?
Answer: 5120

Question: What about the IgG2b endpoint titer [5, 23] of the same compound?
Answer: 5120

Question: What about the IgG2b endpoint titer [5, 24] of the same compound?
Answer: 5120

Question: What about the IgG2b endpoint titer [5, 25] of the same compound?
Answer: 5120

Question: And the IgA endpoint titer [6, 9]?
Answer: 0

Question: And the IgA endpoint titer [6, 10]?
Answer: 0

Question: And the IgA endpoint titer [6, 11]?
Answer: 0

Question: And the IgA endpoint titer [6, 12]?
Answer: 0

Question: What about the IgA endpoint titer [6, 13] of the same compound?
Answer: 0

Question: What about the IgA endpoint titer [6, 14] of the same compound?
Answer: 320

Question: And the IgA endpoint titer [6, 15]?
Answer: 320

Question: What about the IgA endpoint titer [6, 16] of the same compound?
Answer: 640

Question: And the IgA endpoint titer [6, 17]?
Answer: 640

Question: What about the IgA endpoint titer [6, 18] of the same compound?
Answer: 320

Question: And the IgA endpoint titer [6, 19]?
Answer: 640

Question: What about the IgA endpoint titer [6, 20] of the same compound?
Answer: 1280

Question: And the IgA endpoint titer [6, 21]?
Answer: 1280

Question: What about the IgA endpoint titer [6, 22] of the same compound?
Answer: 1280

Question: What about the IgA endpoint titer [6, 23] of the same compound?
Answer: 1280

Question: And the IgA endpoint titer [6, 24]?
Answer: 640

Question: What about the IgA endpoint titer [6, 25] of the same compound?
Answer: 640

Question: What about the IgE endpoint titer [7, 8] of the same compound?
Answer: 0

Question: What about the IgE endpoint titer [7, 10] of the same compound?
Answer: 0

Question: And the IgE endpoint titer [7, 11]?
Answer: 0

Question: And the IgE endpoint titer [7, 12]?
Answer: 0

Question: What about the IgE endpoint titer [7, 13] of the same compound?
Answer: 0

Question: What about the IgE endpoint titer [7, 14] of the same compound?
Answer: 0

Question: And the IgE endpoint titer [7, 15]?
Answer: 40

Question: And the IgE endpoint titer [7, 16]?
Answer: 40

Question: What about the IgE endpoint titer [7, 17] of the same compound?
Answer: 40

Question: And the IgE endpoint titer [7, 18]?
Answer: 0

Question: What about the IgE endpoint titer [7, 19] of the same compound?
Answer: 80

Question: What about the IgE endpoint titer [7, 20] of the same compound?
Answer: 1280

Question: And the IgE endpoint titer [7, 21]?
Answer: 1280

Question: What about the IgE endpoint titer [7, 22] of the same compound?
Answer: 160

Question: And the IgE endpoint titer [7, 23]?
Answer: 160

Question: What about the IgE endpoint titer [7, 24] of the same compound?
Answer: 0

Question: What about the IgE endpoint titer [7, 25] of the same compound?
Answer: 40
